This note sets out measurements from patent US10907212B2, “Inhibitors of cell adhesion” (Regents of the University of Minnesota, priority 2016, dated 2021).

Where no end group is shown, it is not given here.

One experiment concerns ovarian cancer cell aggregation and spheroid formation. The experiment in a line: Spheroid assay for peptides (visual scale +1 to +5). It is filed as cell-based, human. The note with it: 24 hrs; visual scale of +1 to +5; Control = 2. On the procedure:
Spheroids were formed from the NIH:OVCAR5 cell lines described above using the liquid overlay method. One milliliter of a single cell suspension was seeded at a concentration of 50,000 cells/ml in OptiMEM® media, into 24-well tissue culture plates coated with 0.5% Seakem agarose (in complete RPMI-1640). Plates were incubated at 37° C. in a humidified incubator with 5% CO2. At various time points up to 5 days, the plates were removed from the incubator and the spheroids were photographed with a Nikon CoolPix digital camera mounted on an Olympus CK2 inverted microscope with a 4× objective. The size of the spheroids was determined using the measure tool in Adobe Photoshop. The largest spheroids were quantified (20-90 spheroids/well), in a minimum of 8 wells, for a total of >300 spheroids per cell type.
The clinical relevance is that by blocking the formation of spheroids, the cells will be more sensitive to chemotherapy (which targets the single cells that proliferate more rapidly than spheroids).
The spheroid assay for peptides 1-30 were scored using a visual scale of +1 to +5. The controls were scored at +2 (24 hrs) and +4 (48 hrs). […] It may be harder to visually assess the size at 24 hours, since the spheroids are relatively small, but and perhaps some of the peptides are affecting cell division, and that is why the spheroids are smaller than the controls at 48 hours, but not 24 hrs (this can be easily assayed with an MTT assay).
The substance “ICEFATFPTGNRES-NH2 (listed as Homo sapiens) [Peptide 38]” registered a Spheroid-24 of 1.

“ESLTLNVQYEPE-NH2 (listed as Homo sapiens) [Peptide 47]” showed a Spheroid-24 of 1.

As to “SGKQVDLVSAS-NH2 (listed as Homo sapiens) [Peptide 27]”, the Spheroid-24 was determined as 1.

For the substance “LVPSRSMNGQPLTC-NH2 (listed as Homo sapiens) [Peptide 16]”, the Spheroid-24 is 1.

“VDVLDPQEDSGKQV-NH2 (listed as Homo sapiens) [Peptide 26]” displayed a Spheroid-24 of 1.

“EVKGTTSSRSFKHS-NH2 (listed as Homo sapiens) [Peptide 14]” had a Spheroid-24 of 1.

The same experiment, now with this note: 48 hrs; visual scale of +1 to +5; Control = 4.
For the substance “YRGDSGEQVGQVAW-NH2 (listed as Homo sapiens) [Peptide 3]”, the Spheroid-48 was 2.

Turning to “ICEFATFPTGNRES-NH2 (listed as Homo sapiens) [Peptide 38]”, the Spheroid-48 came out at 3.

As to “RPSFTDGTIRLS-NH2 (listed as Homo sapiens) [Peptide 36]”, the Spheroid-48 was 3.

“ESLTLNVQYEPE-NH2 (listed as Homo sapiens) [Peptide 47]” came in with a Spheroid-48 of 2.

Substance “SGKQVDLVSAS-NH2 (listed as Homo sapiens) [Peptide 27]” returned a Spheroid-48 of 2.

“LVPSRSMNGQPLTC-NH2 (listed as Homo sapiens) [Peptide 16]” showed a Spheroid-48 of 1.

Regarding “VDVLDPQEDSGKQV-NH2 (listed as Homo sapiens) [Peptide 26]”, the Spheroid-48 came to 2.

For the substance “HSQVVQVNDSMYGF-NH2 (listed as Homo sapiens) [Peptide 30]”, the Spheroid-48 worked out at 3.

As to “EVKGTTSSRSFKHS-NH2 (listed as Homo sapiens) [Peptide 14]”, the Spheroid-48 is 2.

A further experiment concerns nectin 4 protein on NIH:OVCAR-5 cells. The experiment in a line: Effect of peptides on anti-Nectin-4 antibody binding to cells as determined by flow cytometry. To be noted: Run Four; 150 μg/mL peptide, 30 minutes; Control 4 = 9,631.58. The experiment is classed as cell-based, human. The protocol:
Confluent monolayers of cells were detached from 75 cm^2 tissue culture flasks using Accutase cell dissociation buffer (Innovative Cell Technologies, San Diego, Calif.), washed, and labeled with mouse IgG or mAbs against Nectin-4 or Nectin-1 (2.5 μg/10^6 cells) in Flow Buffer [phosphate buffered saline (PBS) containing 2.5% newborn calf serum and 0.02% sodium azide] for 30 min at 4° C.. Cells were washed and incubated with goat anti-mouse IgG F(ab′)2 (Jackson ImmunoResearch, West Grove, Pa.), then washed again and incubated with streptavidin-allophycocyanin conjugate (Jackson ImmunoResearch, West Grove, Pa.) for 30 min each. Cells were washed and fixed in Flow Buffer containing 1% formaldehyde and analyzed in the University of Minnesota Flow Cytometry Resource with a BD Accuri™ C6 flow cytometer (BD Biosciences, San Jose, Calif.) using the Accuri™ software.
Briefly, NIH:OVCAR-5 cells that natively express a moderate amount of nectin 4 protein were incubated for 30 minutes in 150 μg/mL of soluble peptide in DMSO. After incubation, the cells were washed, and then triple antibody stained using mouse anti-nectin 4 (or IgG control) primary antibody, biotinylated goat anti-mouse secondary antibody, and streptavidin APC tertiary antibody. Finally, utilizing the University of Minnesota flow core's Accuri C6 flow cytometer, the relative antibody binding affinity for control and peptide-treated samples was quantitated and compared. Data was collected for each of the 57 peptides generated.
(In general: A flow cytometer gives signals particle by particle.)
Turning to “ESLTLNVQYEPE-NH2 (listed as Homo sapiens) [Peptide 47]”, the “N4 MFI” value was 11,949.18.

Staying with this experiment, now noted: Run Four; Control 4 = 9.387504873.
For the substance “ESLTLNVQYEPE-NH2 (listed as Homo sapiens) [Peptide 47]”, the “N4 MFI/IgG MFI” value stood at 6.679.

Staying with this experiment, now noted: Run Four; IgG control primary antibody; Control 4 = 1,026.
“ESLTLNVQYEPE-NH2 (listed as Homo sapiens) [Peptide 47]”: the “IgG MFI” value came out at 1789.

Staying with this experiment, now noted: Run Four; antibody binding relative to Control 4 = 100.
Take “ESLTLNVQYEPE-NH2 (listed as Homo sapiens) [Peptide 47]”: the “nectin-4 antibody binding, percent of control” value is on record as 118.1.

Staying with this experiment, now noted: Run One; 150 μg/mL peptide, 30 minutes; Control 1 = 15,015.
For the substance “YRGDSGEQVGQVAW-NH2 (listed as Homo sapiens) [Peptide 3]”, the “N4 MFI” value is listed as 6,987.

Take “LVPSRSMNGQPLTC-NH2 (listed as Homo sapiens) [Peptide 16]”: the “N4 MFI” value is on record as 12,161.

For the substance “EVKGTTSSRSFKHS-NH2 (listed as Homo sapiens) [Peptide 14]”, the “N4 MFI” value is on record as 13,217.

The same experiment, now with this note: Run One; 150 μg/mL peptide, 30 minutes; IgG control primary antibody; Control 1 = 1,670.
Regarding “YRGDSGEQVGQVAW-NH2 (listed as Homo sapiens) [Peptide 3]”, the “IgG MFI” value is 2,044.

For “LVPSRSMNGQPLTC-NH2 (listed as Homo sapiens) [Peptide 16]”, the “IgG MFI” value is 2,432.

“EVKGTTSSRSFKHS-NH2 (listed as Homo sapiens) [Peptide 14]”: the “IgG MFI” value is on record as 3,125.

Still in this experiment, the particulars now being: Run One; Control 1 = 8.99.
Regarding “YRGDSGEQVGQVAW-NH2 (listed as Homo sapiens) [Peptide 3]”, the “N4 MFI/IgG MFI” value worked out at 3.42.

Regarding “LVPSRSMNGQPLTC-NH2 (listed as Homo sapiens) [Peptide 16]”, the “N4 MFI/IgG MFI” value is reported as 5.00.

With “EVKGTTSSRSFKHS-NH2 (listed as Homo sapiens) [Peptide 14]”, the “N4 MFI/IgG MFI” value worked out at 4.23.

The same experiment, now with this note: Run One; antibody binding relative to Control 1 = 100.00.
In the case of “YRGDSGEQVGQVAW-NH2 (listed as Homo sapiens) [Peptide 3]”, the “nectin-4 antibody binding, percent of control” value was determined as 37.04.

Consider “LVPSRSMNGQPLTC-NH2 (listed as Homo sapiens) [Peptide 16]”, for which the “nectin-4 antibody binding, percent of control” value stood at 72.90.

For “EVKGTTSSRSFKHS-NH2 (listed as Homo sapiens) [Peptide 14]”, the “nectin-4 antibody binding, percent of control” value came out at 75.62.

Staying with this experiment, now noted: Run Three; 150 μg/mL peptide, 30 minutes; Control 3 = 13,070.20.
Turning to “ICEFATFPTGNRES-NH2 (listed as Homo sapiens) [Peptide 38]”, the “N4 MFI” value is on record as 12,128.26.

As to “RPSFTDGTIRLS-NH2 (listed as Homo sapiens) [Peptide 36]”, the “N4 MFI” value is 13,633.18.

Staying with this experiment, now noted: Run Three; Control 3 = 9.83.
For the substance “ICEFATFPTGNRES-NH2 (listed as Homo sapiens) [Peptide 38]”, the “N4 MFI/IgG MFI” value turned out to be 7.73.

Consider “RPSFTDGTIRLS-NH2 (listed as Homo sapiens) [Peptide 36]”, for which the “N4 MFI/IgG MFI” value stood at 7.80.

The same experiment, now with this note: Run Three; IgG control primary antibody; Control 3 = 1330.
Turning to “ICEFATFPTGNRES-NH2 (listed as Homo sapiens) [Peptide 38]”, the “IgG MFI” value worked out at 1568.

Turning to “RPSFTDGTIRLS-NH2 (listed as Homo sapiens) [Peptide 36]”, the “IgG MFI” value stood at 1748.

The experiment is the same for the next values; noted with them: Run Three; antibody binding relative to Control 3 = 100.00.
Take “ICEFATFPTGNRES-NH2 (listed as Homo sapiens) [Peptide 38]”: the “nectin-4 antibody binding, percent of control” value was determined as 89.95.

For “RPSFTDGTIRLS-NH2 (listed as Homo sapiens) [Peptide 36]”, the “nectin-4 antibody binding, percent of control” value stood at 101.23.

The experiment is the same for the next values; noted with them: Run Two; 150 μg/mL peptide, 30 minutes; Control 2 = 49,491.
Turning to “SGKQVDLVSAS-NH2 (listed as Homo sapiens) [Peptide 27]”, the “N4 MFI” value is recorded as 22,824.

For the substance “VDVLDPQEDSGKQV-NH2 (listed as Homo sapiens) [Peptide 26]”, the “N4 MFI” value was 35,299.

Regarding “HSQVVQVNDSMYGF-NH2 (listed as Homo sapiens) [Peptide 30]”, the “N4 MFI” value was 205,442.

The same experiment, now with this note: Run Two; Control 2 = 9.46.
For the substance “SGKQVDLVSAS-NH2 (listed as Homo sapiens) [Peptide 27]”, the “N4 MFI/IgG MFI” value is on record as 5.57.

With “VDVLDPQEDSGKQV-NH2 (listed as Homo sapiens) [Peptide 26]”, the “N4 MFI/IgG MFI” value came to 8.92.

Turning to “HSQVVQVNDSMYGF-NH2 (listed as Homo sapiens) [Peptide 30]”, the “N4 MFI/IgG MFI” value turned out to be 3.24.

Staying with this experiment, now noted: Run Two; IgG control primary antibody; Control 2 = 5,233.
Regarding “SGKQVDLVSAS-NH2 (listed as Homo sapiens) [Peptide 27]”, the “IgG MFI” value is 4,099.

With “VDVLDPQEDSGKQV-NH2 (listed as Homo sapiens) [Peptide 26]”, the “IgG MFI” value is recorded as 3,956.

Regarding “HSQVVQVNDSMYGF-NH2 (listed as Homo sapiens) [Peptide 30]”, the “IgG MFI” value is listed as 63,394.

The experiment is the same for the next values; noted with them: Run Two; antibody binding relative to Control 2 = 100.00.
In the case of “SGKQVDLVSAS-NH2 (listed as Homo sapiens) [Peptide 27]”, the “nectin-4 antibody binding, percent of control” value is listed as 42.31.

“VDVLDPQEDSGKQV-NH2 (listed as Homo sapiens) [Peptide 26]”: the “nectin-4 antibody binding, percent of control” value came to 70.82.

For “HSQVVQVNDSMYGF-NH2 (listed as Homo sapiens) [Peptide 30]”, the “nectin-4 antibody binding, percent of control” value stood at 320.95.

Still in this experiment, the particulars now being: flow cytometry; 150 μg/mL peptide.
For “YRGDSGEQVGQVAW-NH2 (listed as Homo sapiens) [Peptide 3]”, the “nectin-4 antibody binding compared to untreated control cells (in words)” value is recorded as “reduction in nectin-4 antibody binding”.

“SGKQVDLVSAS-NH2 (listed as Homo sapiens) [Peptide 27]”: the “nectin-4 antibody binding compared to untreated control cells (in words)” value is on record as “reduction in nectin-4 antibody binding”.

On to “HSQVVQVNDSMYGF-NH2 (listed as Homo sapiens) [Peptide 30]”, for which the “nectin-4 antibody binding compared to untreated control cells (in words)” value is “erroneous/outlier due to solubility issues”.

Still in this experiment, the particulars now being: summary table; Nectin-4 antibody binding relative to control = 100.
“YRGDSGEQVGQVAW-NH2 (listed as Homo sapiens) [Peptide 3]”: the Flow binding is listed as 37%.

On to “SGKQVDLVSAS-NH2 (listed as Homo sapiens) [Peptide 27]”, for which the Flow binding is given as 42%.

“HSQVVQVNDSMYGF-NH2 (listed as Homo sapiens) [Peptide 30]” came in with a Flow binding of 321%.
